Measurements taken from publication PMC8838850, “Synthesis, Antimicrobial, Anti-Virulence and Anticancer Evaluation of New 5(4H)-Oxazolone-Based Sulfonamides” (Molecules, 2022).
≈ marks a conversion by molar mass, not a printed value.

What was measured:
[1] = tested on: Pseudomonas aeruginosae ATCC 47085; experiment: MIC by agar dilution; format: cell-based, Pseudomonas aeruginosa; conditions: ATCC47085, 37 °C, 20 h, read-out: Minimum inhibitory concentration (MIC)
Procedure: (§1) The MICs of the synthesized compound were determined by agar dilution method according to the Clinical Laboratory and Standards Institute Guidelines (CLSI, 2015). Briefly, the tested strains were incubated overnight in tryptic soy broth (TSB) (Oxoid, United Kingdom) and then diluted in Muller–Hinton (MH) broth (Oxoid, United Kingdom) to turbidity approximating to the equivalent of 0.5 McFarland standard. The suspensions were further diluted with sterile saline (1:10) and standardized inoculums (approximately 10^4 CFU per spot) were spotted on the surfaces of MH agar (Oxoid, United Kingdom) plates containing different concentrations of tested compounds and a control plate. The MICs were the lowest concentrations that inhibit growth on the plates after incubation at 37 °C for 20 h.

[2] = tested on: Candida albicans ATCC 10231; experiment: MIC by agar dilution (antifungal); format: cell-based; conditions: for MIC: Candida albicans, ATCC10231, Candida albicans ATCC 10231, read-out: Minimum inhibitory concentration (MIC)
Procedure: as §1

[3] = tested on: Aspergillus niger ATCC 16404; experiment: MIC by agar dilution (antifungal); format: cell-based; conditions: for MIC: ATCC16404, read-out: Minimum inhibitory concentration (MIC)
Procedure: as §1

BxPC-3 = experiment: SRB cellular proliferation assay; format: cell-based, human; conditions: Homo sapiens, BxPC-3 cells, mean ± SD (n = 3), read-out: IC50
Procedure: (§2) The pancreatic human cancer cell lines BxPC-3 and Panc-1, the human hepatocellular carcinoma (HepG-2), and the normal immortalized pancreatic cell line HPDE, that were used in this study, were obtained from the American Type Culture Collection (Rockville, USA). Cell lines were cultured and treated with the tested compounds or dimethyl sulfoxide (DMSO) as previously described. Cells were cultivated in DMEM medium (Invitrogen, Carlsbad, CA, USA), supplemented with streptomycin, penicillin and fetal bovine serum (FCS) (Invitrogen, Carlsbad, CA, USA). The sulforhodamine B (SRB) assay was employed to assess the anti-proliferative effects of tested compounds on cancer cells. Cell lines were incubated and regularly treated with DMSO or increasing doses of tested compounds for 48 h. The cells were fixed with 10% trichloroacetic acid and stained with SRB fluorescent dye for 30 min. Then, the bounded SRB dye to cellular proteins was dissolved in 10 mM Tris base after washing excess dye with 1% acetic acid. The absorbance was measured at 510 nm in a reader (Biotek, Winooski, VT, USA).

Panc-1 = experiment: SRB cellular proliferation assay; format: cell-based, human; conditions: Homo sapiens, Panc-1 cells, mean ± SD (n = 3), read-out: IC50
Procedure: as §2

HepG-2 = experiment: SRB cellular proliferation assay; format: cell-based, human; conditions: Homo sapiens, HepG2, HepG-2 cells, mean ± SD (n = 3), read-out: IC50
Procedure: as §2

[4] = tested on: Staphylococcus aureus ATCC 6538; experiment: MIC by agar dilution; format: cell-based; conditions: ATCC6538, 37 °C, 20 h, read-out: Minimum inhibitory concentration (MIC)
Procedure: as §1

[5] = tested on: Micrococcus spp. ATCC 10240; experiment: MIC by agar dilution; format: cell-based; conditions: ATCC10240, 37 °C, 20 h, read-out: Minimum inhibitory concentration (MIC)
Procedure: as §1

[6] = tested on: Staphylococcus epidermidis ATCC 12228; experiment: MIC by agar dilution; format: cell-based; conditions: ATCC12228, 37 °C, 20 h, read-out: Minimum inhibitory concentration (MIC)
Procedure: as §1

[7] = tested on: Salmonella typhimurium ATCC 14028; experiment: MIC by agar dilution; format: cell-based; conditions: Salmonella enterica, 37 °C, 20 h, read-out: Minimum inhibitory concentration (MIC)
Procedure: as §1

[8] = tested on: Klebsiella pneumoniae ATCC 27736; experiment: MIC by agar dilution; format: cell-based; conditions: ATCC27736, 37 °C, 20 h, read-out: Minimum inhibitory concentration (MIC)
Procedure: as §1

[9] = tested on: Escherichia coli ATCC 10536; experiment: MIC by agar dilution; format: cell-based; conditions: ATCC10536, 37 °C, 20 h, read-out: Minimum inhibitory concentration (MIC)
Procedure: as §1

[10] = tested on: P. aeruginosa ATCC 47,085; experiment: Biofilm formation assay (crystal violet, light microscopy); format: cell-based, Pseudomonas aeruginosa; conditions: sub-MIC, light microscopy image
Procedure: (§3) Bacterial virulence is regulated via a quorum sensing (QS) system in an inducer/receptor manner. Diminishing bacterial virulence is an advantageous strategy to decrease the development of bacterial resistance. In this direction, anti-virulence and anti-QS activities have been explored in several studies as reviewed. The ability of P. aeruginosa or S. aureus to form biofilms was assayed in the absence or presence of tested compounds at sub-MIC. […] The experiment was conducted in triplicate and a one-way ANOVA test was employed to test the statistical significance using Graphpad Prism 8 software. The results were significant statistically where p values < 0.05. Moreover, microscopic visualization of biofilm under the effect of tested compounds was also performed by light microscopy. Representative images for the inhibitory effects on S. aureus and P. aeruginosa biofilm formation are shown (Figure 3C,D). The microscopic images show a marked reduction in both the thickness of and surface area covered by the biofilms in presence of the tested compound.
(§4) In order to evaluate the ability of the tested compounds to inhibit the biofilm formation, a strong biofilm forming P. aeruginosa ATCC 47,085 [47, 66] and S. aureus ATCC 6538 [67] strains were used. As described earlier, suspensions of tested strains were prepared from overnight cultures in TSB and their optical densities were adjusted to OD600 of 0.4 (1×10^8 CFU/mL). Aliquots of 10 μL of the suspensions were added to 1 mL amounts of fresh TSB with or without sub-MICs of tested compounds. […] The non-adherent cells were removed, the wells were washed with sterile PBS, and left to dry. The attached biofilm forming cells were fixed with methanol for 25 min and stained with 1% crystal violet for 30 min. The excess dye was washed out and the crystal violet staining adhered biofilm forming cells were eluted by glacial acetic acid (33%). The experiment was conducted in triplicate and the absorbance was measured at 590 nm. The absorbances of tested strains treated with different compounds were expressed as mean ± standard error of percentage change from untreated tested strains control. The percentages of biofilm inhibition were calculated employing the following formula: (absorbance of control—absorbance in presence of tested compounds)/absorbance of control.

S. aureus ATCC 6538 = experiment: as above; format: cell-based, Staphylococcus aureus; conditions: sub-MIC, light microscopy image
Procedure: as §3, §4

| SMILES | MIC [1] [µg/mL] | melting point [°C] | MIC [2] [µg/mL] | MIC [3] [µg/mL] | IC50 (BxPC-3) [µg/mL] | IC50 (Panc-1) [µg/mL] | IC50 (HepG-2) [µg/mL] | MIC [4] [µg/mL] | MIC [5] [µg/mL] | MIC [6] [µg/mL] | MIC [7] [µg/mL] | MIC [8] [µg/mL] | MIC [9] [µg/mL] | Biofilm formation, microscopic visualization [10] | Biofilm formation, microscopic visualization (S. aureus ATCC 6538) | Minimum inhibitory concentration (MIC) ([2]; Candida albicans ATCC 10231) [µg/mL] | Minimum inhibitory concentration (MIC) [3] [µg/mL] |
| --- | --- | --- | --- | --- | --- | --- | --- | --- | --- | --- | --- | --- | --- | --- | --- | --- | --- |
| Cc1ccc(S(=O)(=O)Nc2ccccc2C2=N/C(=C/c3cccs3)C(=O)O2)cc1 [Compound 9j, (E)-4-Methyl-N-(2-(5-oxo-4-(thiophen-2-ylmethylene)-4,5-dihydrooxazol-2-yl)phenyl)benzenesulfonamide] | > 32 | 196 to 198 | > 32 | > 32 | 21.4 ± 2.15 (≈ 50.5 µM) | 16 ± 3.18 (≈ 37.8 µM) | 25.54 ± 0.144 (≈ 60.2 µM) | 16 (≈ 37.7 µM) | 8 (≈ 18.8 µM) | 8 (≈ 18.8 µM) | > 32 | > 32 | > 32 |  |  |  |  |
| Cc1ccc(S(=O)(=O)Nc2ccccc2C2=N/C(=C/c3ccco3)C(=O)O2)cc1 [Compound 9i, (E)-N-(2-(4-(Furan-2-ylmethylene)-5-oxo-4,5-dihydrooxazol-2-yl)phenyl)-4-methylbenzenesulfonamide] | > 32 | 191 to 193 | > 32 | > 32 | 21.8 ± 2.98 (≈ 53.4 µM) | 16.1 ± 1.82 (≈ 39.5 µM) | 27 ± 5.32 (≈ 66.1 µM) | 2 (≈ 4.9 µM) | 2 (≈ 4.9 µM) | 2 (≈ 4.9 µM) | > 32 | > 32 | > 32 |  |  |  |  |
| Cc1ccc(S(=O)(=O)Nc2ccccc2C2=N/C(=C/c3ccc(Cl)cc3)C(=O)O2)cc1 [Compound 9e, (E)-N-(2-(4-(4-Chlorobenzylidene)-5-oxo-4,5-dihydrooxazol-2-yl)phenyl)-4-methylbenzenesulfonamide] | 8 (≈ 17.7 µM) | 234 to 236 | 8 (≈ 17.7 µM) | 16 (≈ 35.3 µM) | 13.3 ± 1.57 (≈ 29.3 µM) | 12.2 ± 1.29 (≈ 26.8 µM) | 15 ± 2.89 (≈ 33.2 µM) | 2 (≈ 4.42 µM) | 2 (≈ 4.42 µM) | 2 (≈ 4.42 µM) | 4 (≈ 8.83 µM) | 2 (≈ 4.42 µM) | 4 (≈ 8.83 µM) | markedly reduced | markedly reduced |  |  |
| Cc1cc(NS(=O)(=O)c2ccc(N)cc2)no1 [Sulphamethoxazole, reference compound] | 4 (≈ 15.8 µM) |  |  |  |  |  |  | 2 (≈ 7.9 µM) | 1 (≈ 3.95 µM) | 2 (≈ 7.9 µM) | 2 (≈ 7.9 µM) | 2 (≈ 7.9 µM) | 1 (≈ 3.95 µM) |  |  |  |  |
| Cc1ccc(S(=O)(=O)Nc2ccccc2C2=N/C(=C/c3ccc(OCc4ccccc4)cc3)C(=O)O2)cc1 [Compound 9g, (E)-N-(2-(4-(4-(Benzyloxy)benzylidene)-5-oxo-4,5-dihydrooxazol-2-yl)phenyl)-4-methylbenzenesulfonamide] | 16 (≈ 30.5 µM) | 235 to 237 | > 32 | > 32 | 25.7 ± 4.89 (≈ 49 µM) | 29.3 ± 4.23 (≈ 55.8 µM) | 32.5 ± 1.45 (≈ 62 µM) | 2 (≈ 3.81 µM) | 2 (≈ 3.81 µM) | 2 (≈ 3.81 µM) | 16 (≈ 30.5 µM) | 8 (≈ 15.2 µM) | 2 (≈ 3.81 µM) |  |  |  |  |
| CO/N=C(\C(=O)N[C@@H]1C(=O)N2C(C(=O)O)=C(COC(C)=O)CS[C@H]12)c1csc(N)n1 [Cefotaxime, reference compound] | 1 (≈ 2.2 µM) |  |  |  |  |  |  | 0.5 (≈ 1.1 µM) | 0.25 (≈ 0.549 µM) | 0.25 (≈ 0.549 µM) | 1 (≈ 2.2 µM) | 0.5 (≈ 1.1 µM) | 0.125 (≈ 0.274 µM) |  |  |  |  |
| C[C@@H]1[C@H](O)[C@@H](C)/C=C/C=C/CC/C=C/C=C/C=C/C=C/C(O[C@H]2O[C@H](C)[C@@H](O)[C@H](N)[C@@H]2O)CC2O[C@](O)(CC(O)C(O)CCC(O)CC(O)CC(O)CC(=O)O[C@H]1C)CC(O)C2C(=O)O (stereo partly shown) [Nystatin, reference compound] |  |  |  |  |  |  |  |  |  |  |  |  |  |  |  | 4 (≈ 4.32 µM) | 4 (≈ 4.32 µM) |
| COc1cc(/C=C2/N=C(c3ccccc3NS(=O)(=O)c3ccc(C)cc3)OC2=O)cc(OC)c1OC [Compound 9d, (E)-4-Methyl-N-(2-(5-oxo-4-(3,4,5-trimethoxybenzylidene)-4,5-dihydrooxazol-2-yl)phenyl)be-nzenesulfonamide] | 32 (≈ 62.9 µM) | 230 to 232 | > 32 | > 32 | 18.1 ± 3.56 (≈ 35.5 µM) | 25.3 ± 1.91 (≈ 49.8 µM) | 22.7 ± 2.3 (≈ 44.7 µM) | 4 (≈ 7.87 µM) | 2 (≈ 3.93 µM) | 2 (≈ 3.93 µM) | 16 (≈ 31.5 µM) | 16 (≈ 31.5 µM) | 4 (≈ 7.87 µM) |  |  |  |  |
| CC1(C)S[C@@H]2[C@H](NC(=O)[C@H](N)c3ccc(O)cc3)C(=O)N2[C@H]1C(=O)O [Amoxycillin, reference compound] | 2 (≈ 5.47 µM) |  |  |  |  |  |  | 0.5 (≈ 1.37 µM) | 0.25 (≈ 0.684 µM) | 0.5 (≈ 1.37 µM) | 1 (≈ 2.74 µM) | 1 (≈ 2.74 µM) | 0.5 (≈ 1.37 µM) |  |  |  |  |
| COc1cccc2c1C(=O)c1c(O)c3c(c(O)c1C2=O)C[C@@](O)(C(=O)CO)C[C@@H]3O[C@H]1C[C@H](N)[C@H](O)[C@H](C)O1 [Doxorubicin, reference compound] |  |  |  |  | 7.31 ± 1.12 (≈ 13.4 µM) | 6.9 ± 0.93 (≈ 12.7 µM) | 5.11 ± 0.98 (≈ 9.4 µM) |  |  |  |  |  |  |  |  |  |  |
| COc1ccc(OC)c(/C=C2/N=C(c3ccccc3NS(=O)(=O)c3ccc(C)cc3)OC2=O)c1 [Compound 9c, (E)-N-(2-(4-(2,5-diMethoxybenzylidene)-5-oxo-4,5-dihydrooxazol-2-yl)phenyl)-4-methylbenzenesulfonamide] | 16 (≈ 33.4 µM) | 220 to 222 | 4 (≈ 8.36 µM) | 8 (≈ 16.7 µM) | 21.5 ± 1.08 (≈ 44.9 µM) | 15.1 ± 4.13 (≈ 31.6 µM) | 19.1 ± 3.23 (≈ 39.9 µM) | 8 (≈ 16.7 µM) | 4 (≈ 8.36 µM) | 4 (≈ 8.36 µM) | 8 (≈ 16.7 µM) | 8 (≈ 16.7 µM) | 4 (≈ 8.36 µM) |  |  |  |  |
